Experimental data reported in PubChem BioAssay (NCI).
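Five compound concentrations were applied to cells in 96-well plates for 48 hours; endpoints were derived by simple linear interpolation of the resulting dose-response curve. Abbreviation: GI50, concentration required for 50% inhibition of growth. The concentration for full growth arrest is given as TGI.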

What was measured:
Assay in all cases: NCI tumour cell line growth inhibition, 48 h
RXF 393 renal = test system: RXF 393 renal
KM12 colon = test system: KM12 colon
SK-MEL-5 melanoma = test system: SK-MEL-5 melanoma
SN12C renal = test system: SN12C renal
MALME-3M melanoma = test system: MALME-3M melanoma
SF-295 CNS = test system: SF-295 CNS
NCI-H522 lung = test system: NCI-H522 lung
SK-MEL-2 melanoma = test system: SK-MEL-2 melanoma
RPMI-8226 leukemia = test system: RPMI-8226 leukemia
SR leukemia = test system: SR leukemia
OVCAR-3 ovarian = test system: OVCAR-3 ovarian
HOP-62 NSCLC = test system: HOP-62 NSCLC
U251 CNS = test system: U251 CNS
NCI/ADR-RES ovarian = test system: NCI/ADR-RES ovarian
NCI-H23 lung = test system: NCI-H23 lung
K-562 leukemia = test system: K-562 leukemia
LOX IMVI melanoma = test system: LOX IMVI melanoma
EKVX NSCLC = test system: EKVX NSCLC
OVCAR-4 ovarian = test system: OVCAR-4 ovarian
M14 melanoma = test system: M14 melanoma
NCI-H226 lung = test system: NCI-H226 lung
HT29 colon = test system: HT29 colon
COLO 205 colon = test system: COLO 205 colon
A549 NSCLC = test system: A549 NSCLC
OVCAR-8 ovarian = test system: OVCAR-8 ovarian
HL-60(TB) leukemia = test system: HL-60(TB) leukemia
HCC-2998 colon = test system: HCC-2998 colon
MOLT-4 leukemia = test system: MOLT-4 leukemia
MDA-MB-231 breast = test system: MDA-MB-231 breast
MDA-MB-435 = test system: MDA-MB-435
SF-539 CNS = test system: SF-539 CNS
A498 renal = test system: A498 renal
BT-549 breast = test system: BT-549 breast
SF-268 CNS = test system: SF-268 CNS
PC-3 prostate = test system: PC-3 prostate
786-0 renal = test system: 786-0 renal
TK-10 renal = test system: TK-10 renal
SK-MEL-28 melanoma = test system: SK-MEL-28 melanoma
IGROV1 ovarian = test system: IGROV1 ovarian
CCRF-CEM leukemia = test system: CCRF-CEM leukemia
MCF7 breast = test system: MCF7 breast
OVCAR-5 ovarian = test system: OVCAR-5 ovarian
HCT-116 colon = test system: HCT-116 colon
HCT-15 colon = test system: HCT-15 colon
UO-31 renal = test system: UO-31 renal
DU-145 prostate = test system: DU-145 prostate
UACC-257 melanoma = test system: UACC-257 melanoma
UACC-62 melanoma = test system: UACC-62 melanoma
HS 578T breast = test system: HS 578T breast
T-47D breast = test system: T-47D breast
SNB-75 CNS = test system: SNB-75 CNS
SW-620 colon = test system: SW-620 colon
SNB-19 CNS = test system: SNB-19 CNS
SK-OV-3 ovarian = test system: SK-OV-3 ovarian
HOP-92 NSCLC = test system: HOP-92 NSCLC
NCI-H460 lung = test system: NCI-H460 lung

Compound `CC1=C(CCCOC(=O)[C@H](N)CC(C)C)C2=C(C)C3(CC3)[C@@](C)(O)C(=O)C2=C1` has a GI50 (RXF 393 renal) of 0.492 µM, a TGI (RXF 393 renal) of 1.29 µM and a GI50 (KM12 colon) of 7.66 µM. For the same compound, the TGI (KM12 colon) was greater than 100 µM, the GI50 (SK-MEL-5 melanoma) was 1.44 µM and the TGI (SK-MEL-5 melanoma) was 2.83 µM. The GI50 (SN12C renal) was 2.6 µM, the TGI (SN12C renal) was greater than 100 µM and the GI50 (MALME-3M melanoma) was 1.44 µM. For the same compound, the TGI (MALME-3M melanoma) was 3.31 µM, the GI50 (SF-295 CNS) was 2.19 µM and the TGI (SF-295 CNS) was greater than 31.2 µM. It also gave a GI50 (NCI-H522 lung) of 2.69 µM, a TGI (NCI-H522 lung) of 11.1 µM and a GI50 (SK-MEL-2 melanoma) of 1.91 µM. For the same compound, the TGI (SK-MEL-2 melanoma) was 3.89 µM, the GI50 (RPMI-8226 leukemia) was 21.2 µM and the TGI (RPMI-8226 leukemia) was 57.1 µM. The GI50 (SR leukemia) was 12.8 µM, the TGI (SR leukemia) was greater than 100 µM and the GI50 (OVCAR-3 ovarian) was 2.31 µM. It also gave a TGI (OVCAR-3 ovarian) of 7.6 µM, a GI50 (HOP-62 NSCLC) of 1.61 µM and a TGI (HOP-62 NSCLC) of 5.42 µM. It also gave a GI50 (U251 CNS) of 2.53 µM, a TGI (U251 CNS) of 13.7 µM and a GI50 (NCI/ADR-RES ovarian) of 2.14 µM. It also gave a TGI (NCI/ADR-RES ovarian) greater than 38.8 µM, a GI50 (NCI-H23 lung) of 0.367 µM and a TGI (NCI-H23 lung) of 3.23 µM. The GI50 (K-562 leukemia) was 34.3 µM, the TGI (K-562 leukemia) was greater than 100 µM and the GI50 (LOX IMVI melanoma) was 2.42 µM. It also gave a TGI (LOX IMVI melanoma) of 8.9 µM, a GI50 (EKVX NSCLC) of 2.77 µM and a TGI (EKVX NSCLC) of 8.66 µM. It also gave a GI50 (OVCAR-4 ovarian) of 1.54 µM, a TGI (OVCAR-4 ovarian) of 21.6 µM and a GI50 (M14 melanoma) of 1.67 µM. It also gave a TGI (M14 melanoma) of 4.41 µM, a GI50 (NCI-H226 lung) of 1.89 µM and a TGI (NCI-H226 lung) of 6.95 µM. The GI50 (HT29 colon) was 2.22 µM, the TGI (HT29 colon) was 6.02 µM and the GI50 (COLO 205 colon) was 1.49 µM. For the same compound, the TGI (COLO 205 colon) was 3.42 µM, the GI50 (A549 NSCLC) was 3.06 µM and the TGI (A549 NSCLC) was 30.9 µM. The GI50 (OVCAR-8 ovarian) was 2.13 µM, the TGI (OVCAR-8 ovarian) was greater than 33.3 µM and the GI50 (HL-60(TB) leukemia) was 2.01 µM. The TGI (HL-60(TB) leukemia) was 13.2 µM, the GI50 (HCC-2998 colon) was 1.78 µM and the TGI (HCC-2998 colon) was 4.49 µM. The GI50 (MOLT-4 leukemia) was 24.6 µM, the TGI (MOLT-4 leukemia) was greater than 100 µM and the GI50 (MDA-MB-231 breast) was 2.03 µM. It also gave a TGI (MDA-MB-231 breast) of 6.42 µM, a GI50 (MDA-MB-435) of 3.28 µM and a TGI (MDA-MB-435) of 27.6 µM. For the same compound, the GI50 (SF-539 CNS) was 1.61 µM, the TGI (SF-539 CNS) was 4.25 µM and the GI50 (A498 renal) was 1.68 µM. It also gave a TGI (A498 renal) of 3.66 µM, a GI50 (BT-549 breast) of 1.31 µM and a TGI (BT-549 breast) of 4.48 µM. For the same compound, the GI50 (SF-268 CNS) was 0.736 µM, the TGI (SF-268 CNS) was greater than 47.2 µM and the GI50 (PC-3 prostate) was 2.43 µM. The TGI (PC-3 prostate) was 44.1 µM, the GI50 (786-0 renal) was 2.84 µM and the TGI (786-0 renal) was 11.4 µM. The GI50 (TK-10 renal) was 2.88 µM, the TGI (TK-10 renal) was 7.92 µM and the GI50 (SK-MEL-28 melanoma) was 2.11 µM. The TGI (SK-MEL-28 melanoma) was 5.51 µM, the GI50 (IGROV1 ovarian) was 0.471 µM and the TGI (IGROV1 ovarian) was 6.19 µM. The GI50 (CCRF-CEM leukemia) was 22.9 µM, the TGI (CCRF-CEM leukemia) was greater than 100 µM and the GI50 (MCF7 breast) was 2.73 µM. It also gave a TGI (MCF7 breast) greater than 87.1 µM, a GI50 (OVCAR-5 ovarian) of 1.94 µM and a TGI (OVCAR-5 ovarian) of 11.8 µM. It also gave a GI50 (HCT-116 colon) of 1.7 µM, a TGI (HCT-116 colon) of 5.91 µM and a GI50 (HCT-15 colon) of 2.1 µM. It also gave a TGI (HCT-15 colon) greater than 100 µM, a GI50 (UO-31 renal) of 1.42 µM and a TGI (UO-31 renal) of 4.32 µM. For the same compound, the GI50 (DU-145 prostate) was 0.392 µM, the TGI (DU-145 prostate) was greater than 100 µM and the GI50 (UACC-257 melanoma) was 2.53 µM. It also gave a TGI (UACC-257 melanoma) of 6.06 µM, a GI50 (UACC-62 melanoma) of 1.75 µM and a TGI (UACC-62 melanoma) of 3.75 µM. The GI50 (HS 578T breast) was 5.3 µM, the TGI (HS 578T breast) was 43.8 µM and the GI50 (T-47D breast) was 1.84 µM. The TGI (T-47D breast) was 6.53 µM, the GI50 (SNB-75 CNS) was 1.34 µM and the TGI (SNB-75 CNS) was 3.05 µM. The GI50 (SW-620 colon) was 19.6 µM, the TGI (SW-620 colon) was greater than 84 µM and the GI50 (SNB-19 CNS) was 2.88 µM. The TGI (SNB-19 CNS) was greater than 100 µM, the GI50 (SK-OV-3 ovarian) was 0.752 µM and the TGI (SK-OV-3 ovarian) was 3.03 µM. For the same compound, the GI50 (HOP-92 NSCLC) was 0.759 µM, the TGI (HOP-92 NSCLC) was 3.33 µM and the GI50 (NCI-H460 lung) was 0.375 µM. The TGI (NCI-H460 lung) was 11.1 µM.
